Data taken from the NIST ThermoML archive (doi:10.1021/je700373r).

How the values were obtained:
[1] = Fluid (supercritical or subcritical phases), Vibrating tube method
[2] = xn = mol fraction of the nth substance listed; settings: Fluid (supercritical or subcritical phases), Vibrating tube method, x2 = 0

O=C=O [carbon dioxide]
mass density [kg/m3], [1]
Settings | 10000 kPa | 15000 kPa | 20000 kPa | 30000 kPa | 40000 kPa
308.15 K | 717.2 | 816.1 | 866.1 | 929 | 971.7
313.15 K | 636.6 | 781.3 | 840.2 | 909.7 | 955.5
323.15 K | 397.3 | 701.8 | 784.9 | 870.3 | 922.8
333.15 K | 296.1 | 607 | 724.4 | 829.6 | 889.8

O=C=O [carbon dioxide] + CC1=C(/C=C/C(C)=C/C=C/C(C)=C/C=C/C=C(C)/C=C/C=C(C)/C=C/C2=C(C)CCCC2(C)C)C(C)(C)CCC1
mass density [kg/m3], [2]
Settings | 10000 kPa | 15000 kPa | 20000 kPa | 30000 kPa | 40000 kPa
308.15 K | 717.2 | 816.1 | 866.1 | 929 | 971.7
313.15 K | 636.6 | 781.3 | 840.2 | 909.7 | 955.5
323.15 K | 397.3 | 701.8 | 784.9 | 870.3 | 922.8
333.15 K | 296.1 | 607 | 724.4 | 829.6 | 889.8
